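The compound was tested at five concentrations on cells cultured in 96-well plates, with a 48-hour exposure period. GI50 is the concentration that inhibits growth by half.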 Calls of active or inactive are those of the source. Rule as the data show it: active = GI50 up to about 1.1 µM and inactive = higher.
Key:
Test in all cases: inhibition of tumour cell growth, NCI panel, 48 h
U-251 = test system: U-251
SNB-19 = test system: SNB-19
UACC-257 = test system: UACC-257
SW-620 = test system: SW-620
HL-60 = test system: HL-60
OVCAR-4 = test system: OVCAR-4
TK-10 = test system: TK-10
CAKI-1 = test system: CAKI-1
CCRF-CEM = test system: CCRF-CEM
K562 = test system: K562
NCI-H460 = test system: NCI-H460
SK-MEL-5 = test system: SK-MEL-5
COLO 205 = test system: COLO 205
HCC 2998 = test system: HCC 2998
A549 = test system: A549
SF-268 = test system: SF-268
PC-3 = test system: PC-3
DU-145 = test system: DU-145
MDA-MB-231 = test system: MDA-MB-231

Measured: GI50

CC(=O)c1ccc(NC(=O)/C(=N\NC(N)=O)C(C#N)CC(C)(C)C=O)cc1 (stereo not drawn)
inactive: U-251 > 100 µM | SNB-19 > 100 µM | UACC-257 > 100 µM | SW-620 > 100 µM | HL-60 > 100 µM | OVCAR-4 > 100 µM | TK-10 > 100 µM | CAKI-1 > 100 µM | CCRF-CEM > 100 µM | K562 > 100 µM | NCI-H460 > 100 µM | SK-MEL-5 > 100 µM | COLO 205 > 100 µM | HCC 2998 > 100 µM | A549 > 100 µM | SF-268 > 100 µM

Cc1ccc(NC(=O)C2C(=O)N(c3ccc(C)c(C)c3)C(=O)/C2=N\NC(N)=O)cc1C (stereo not drawn)
inactive: U-251 57.3 µM | SNB-19 > 100 µM | UACC-257 > 100 µM | SW-620 > 100 µM | HL-60 81.5 µM | OVCAR-4 > 100 µM | TK-10 > 100 µM | CAKI-1 > 100 µM | CCRF-CEM 73.8 µM | K562 52.7 µM | NCI-H460 > 100 µM | SK-MEL-5 > 100 µM | COLO 205 > 100 µM | HCC 2998 > 100 µM | A549 52.8 µM | SF-268 74 µM

CCOc1ccccc1NC(=O)CCc1nnc(S)[nH]1
inactive: U-251 > 100 µM | SNB-19 > 100 µM | UACC-257 > 100 µM | SW-620 > 100 µM | HL-60 > 100 µM | OVCAR-4 > 100 µM | TK-10 > 100 µM | CAKI-1 > 100 µM | CCRF-CEM > 100 µM | K562 > 100 µM | NCI-H460 > 100 µM | SK-MEL-5 > 100 µM | COLO 205 > 100 µM | HCC 2998 > 100 µM | A549 > 100 µM | SF-268 > 100 µM

CC(=O)Nc1ccc(/C=C(\NC(=O)c2ccccc2)C(=O)NNS(=O)(=O)c2ccc(C)cc2)cc1
inactive: U-251 > 100 µM | SNB-19 > 100 µM | UACC-257 > 100 µM | HL-60 > 100 µM | OVCAR-4 > 100 µM | TK-10 > 100 µM | CAKI-1 > 100 µM | CCRF-CEM > 100 µM | K562 > 100 µM | NCI-H460 50.2 µM | SK-MEL-5 > 100 µM | COLO 205 25.8 µM | HCC 2998 > 100 µM | A549 > 100 µM | SF-268 78.9 µM

Cc1cc(O)c(C(=O)CC2(O)C(=O)Nc3c(Cl)cc(Cl)cc32)c(=O)o1 (stereo not drawn)
inactive: U-251 > 100 µM | SNB-19 > 100 µM | UACC-257 > 100 µM | SW-620 52.1 µM | HL-60 > 100 µM | OVCAR-4 > 100 µM | TK-10 > 100 µM | CAKI-1 > 100 µM | CCRF-CEM 63 µM | K562 > 100 µM | NCI-H460 > 100 µM | SK-MEL-5 > 100 µM | COLO 205 > 100 µM | HCC 2998 > 100 µM | A549 > 100 µM | SF-268 > 100 µM

Cn1c(=O)oc2cc(C3CCC(=O)N3Cc3ccc(Cl)cc3)ccc21 (stereo not drawn)
inactive: U-251 > 100 µM | SNB-19 > 100 µM | UACC-257 > 100 µM | SW-620 > 100 µM | HL-60 > 100 µM | OVCAR-4 > 100 µM | TK-10 > 100 µM | CAKI-1 > 100 µM | CCRF-CEM > 100 µM | K562 > 100 µM | NCI-H460 > 100 µM | SK-MEL-5 > 100 µM | COLO 205 > 100 µM | HCC 2998 > 100 µM | A549 > 100 µM | SF-268 > 100 µM

COC1=C2CC(C)CC(OC)C(O)C(C)/C=C(\C)C(OC(N)=O)C(OC)/C=C\C=C(/C)C(=O)NC(=C(/C=N/N3CCCCC3)C1=O)C2=O (stereo not drawn)
inactive: U-251 6.4 µM | SNB-19 16.1 µM | UACC-257 11.9 µM | SW-620 2.82 µM | HL-60 1.95 µM | OVCAR-4 5.26 µM | TK-10 27.9 µM | PC-3 15.3 µM | DU-145 18.3 µM | CAKI-1 15.7 µM | CCRF-CEM 2.55 µM | K562 5.4 µM | NCI-H460 19.5 µM | SK-MEL-5 15.8 µM | COLO 205 2.93 µM | HCC 2998 6.7 µM | A549 21.5 µM | SF-268 6.18 µM

O=C(c1ccco1)c1ccccc1C(=O)c1ccco1
inactive: U-251 > 100 µM | SNB-19 > 100 µM | UACC-257 > 100 µM | SW-620 > 100 µM | HL-60 > 100 µM | OVCAR-4 > 100 µM | TK-10 > 100 µM | CAKI-1 > 100 µM | CCRF-CEM > 100 µM | K562 > 100 µM | NCI-H460 > 100 µM | SK-MEL-5 > 100 µM | COLO 205 > 100 µM | HCC 2998 > 100 µM | A549 > 100 µM | SF-268 > 100 µM

Cc1cc(Cl)ccc1NC(=O)CCCC(=O)C1CCCC1=O (stereo not drawn)
inactive: U-251 > 100 µM | SNB-19 > 100 µM | UACC-257 > 100 µM | SW-620 > 100 µM | HL-60 > 100 µM | OVCAR-4 > 100 µM | TK-10 > 100 µM | CAKI-1 > 100 µM | CCRF-CEM > 100 µM | K562 > 100 µM | NCI-H460 > 100 µM | SK-MEL-5 > 100 µM | COLO 205 > 100 µM | HCC 2998 > 100 µM | A549 > 100 µM | SF-268 > 100 µM

CC[C@@]12CCC(=S)N(CCSc3ccccc3)[C@@H]1c1c(n(S(=O)(=O)c3ccc(OC)cc3)c3ccccc13)CC2
inactive: U-251 > 100 µM | SNB-19 32.9 µM | UACC-257 > 100 µM | SW-620 > 100 µM | HL-60 > 100 µM | TK-10 52 µM | PC-3 > 100 µM | DU-145 > 100 µM | CAKI-1 > 100 µM | CCRF-CEM > 100 µM | K562 > 100 µM | NCI-H460 > 100 µM | SK-MEL-5 > 100 µM | COLO 205 > 100 µM | MDA-MB-231 > 100 µM | A549 > 100 µM | SF-268 > 100 µM

CC(=O)c1ccc(OCC(O)CO)cc1 (stereo not drawn)
inactive: U-251 49.8 µM | SNB-19 > 100 µM | UACC-257 > 100 µM | SW-620 14.9 µM | HL-60 > 100 µM | OVCAR-4 > 100 µM | TK-10 > 100 µM | CAKI-1 > 100 µM | CCRF-CEM > 100 µM | K562 61.9 µM | NCI-H460 > 100 µM | SK-MEL-5 > 100 µM | COLO 205 35.6 µM | HCC 2998 > 100 µM | A549 94.2 µM | SF-268 > 100 µM

Cc1nc2c(n1-c1ccccc1)C(=O)c1ccccc1C2=O
inactive: U-251 34 µM | SNB-19 50.2 µM | UACC-257 22.4 µM | SW-620 35.5 µM | HL-60 14.7 µM | OVCAR-4 28.2 µM | TK-10 > 100 µM | CAKI-1 70.8 µM | CCRF-CEM 32.1 µM | K562 32.2 µM | NCI-H460 39.3 µM | SK-MEL-5 25.8 µM | HCC 2998 39.6 µM | A549 38.5 µM | SF-268 54.8 µM

Source: ChEMBL document CHEMBL1201862, “PubChem BioAssay data set” (2004)
